The NIST ThermoML archive (doi:10.1016/j.jct.2018.10.007)

Conditions: Liquid, Rate of evaporation

CCCCCCC[P+](CCCCCC)(CCCCCC)CCCCCC.O=S(=O)([N-]S(=O)(=O)C(F)(F)F)C(F)(F)F [trihexylheptylphosphonium bis(trifluoromethanesulfonyl)imide]
Conditions	vapor or sublimation pressure [kPa]
408.53 K	6.2e-10
410.91 K	8.8e-10
413.56 K	1.1e-09
415.89 K	1.6e-09
418.57 K	2.1e-09
420.85 K	2.8e-09
423.58 K	3.8e-09
425.82 K	4.9e-09
428.58 K	6.7e-09
430.8 K	8.5e-09
433.58 K	1.2e-08
435.79 K	1.5e-08
438.58 K	2e-08
440.78 K	2.5e-08
443.58 K	3.4e-08
445.8 K	4.2e-08
448.56 K	5.8e-08
450.83 K	7e-08
453.59 K	9.5e-08
455.88 K	1.16e-07

CCCCCC[P+](CCCCC)(CCCCCC)CCCCCC.F[P-](F)(F)(F)(F)F [trihexylpentylphosphonium hexafluorophosphate]
Conditions	vapor or sublimation pressure [kPa]
403.41 K	5e-10
405.89 K	6.6e-10
408.27 K	8.8e-10
410.78 K	1.2e-09
413.19 K	1.6e-09
415.69 K	2.1e-09
418.15 K	2.8e-09
420.65 K	3.7e-09
423.13 K	4.8e-09
425.62 K	6.5e-09
428.15 K	8.5e-09
430.63 K	1.1e-08
433.15 K	1.4e-08
435.65 K	1.8e-08
438.17 K	2.4e-08
440.7 K	3.1e-08
443.21 K	3.9e-08
445.73 K	5.1e-08
448.25 K	6.5e-08
450.79 K	8.3e-08

CCCCCCCCCCCCCC[P+](CCCC)(CCCC)CCCC.O=S(=O)([N-]S(=O)(=O)C(F)(F)F)C(F)(F)F
Conditions	vapor or sublimation pressure [kPa]
393.28 K	1.6e-09
395.67 K	2e-09
398.14 K	2.9e-09
400.54 K	4.1e-09
403.07 K	5.3e-09
405.5 K	7.3e-09
408.02 K	1e-08
410.51 K	1.4e-08
413.04 K	1.8e-08
415.54 K	2.5e-08
418.06 K	3.3e-08
420.57 K	4.4e-08
423.09 K	6e-08
425.61 K	7.6e-08
428.14 K	1.03e-07
430.65 K	1.35e-07
433.18 K	1.7e-07
435.69 K	2.23e-07
438.18 K	2.92e-07
440.71 K	3.73e-07

CCCCCCC[P+](CCCCCC)(CCCCCC)CCCCCC.F[P-](F)(F)(F)(F)F [trihexylheptylphosphonium hexafluorophosphate]
Conditions	vapor or sublimation pressure [kPa]
405.87 K	3.6e-10
408.4 K	4.9e-10
410.8 K	6.7e-10
413.34 K	9e-10
415.74 K	1.2e-09
418.27 K	1.6e-09
420.69 K	2.2e-09
423.22 K	2.8e-09
425.68 K	3.8e-09
428.2 K	4.9e-09
430.66 K	6.5e-09
433.19 K	8.4e-09
435.68 K	1.1e-08
438.21 K	1.5e-08
440.7 K	1.9e-08
443.24 K	2.5e-08
445.74 K	3.1e-08
448.28 K	4.2e-08
450.97 K	5.3e-08
453.32 K	6.9e-08

CCCCCCCC[P+](CCCCCCCC)(CCCCCCCC)CCCCCCCC.[Cl-] [tetraoctylphosphonium chloride]
Conditions	vapor or sublimation pressure [kPa]
408.38 K	1.5e-10
410.9 K	2.3e-10
413.32 K	2.9e-10
413.46 K	3.3e-10
415.87 K	4.2e-10
418.26 K	5.5e-10
418.44 K	5.9e-10
420.79 K	7.9e-10
423.23 K	1e-09
423.41 K	1.2e-09
425.8 K	1.5e-09
428.2 K	2e-09
428.36 K	2e-09
430.73 K	2.7e-09
433.18 K	3.8e-09
433.31 K	3.7e-09
435.74 K	5e-09
438.21 K	6.7e-09
438.28 K	6.6e-09
440.77 K	8.8e-09
443.21 K	1.2e-08
443.3 K	1.2e-08
445.8 K	1.5e-08
448.27 K	2.1e-08
448.33 K	2e-08
450.84 K	2.6e-08
453.31 K	3.9e-08
453.36 K	3.4e-08
455.89 K	4.6e-08
458.4 K	6.2e-08

CCCCCCCCCCCCCC[P+](CCCCCC)(CCCCCC)CCCCCC.O=S(=O)([N-]S(=O)(=O)C(F)(F)F)C(F)(F)F
Conditions	vapor or sublimation pressure [kPa]
399.34 K	2.3e-11
404.33 K	4.6e-11
405.52 K	5.3e-11
407.95 K	7.1e-11
408.01 K	7.5e-11
409.24 K	8.6e-11
409.33 K	8.9e-11
410.52 K	1e-10
412.96 K	1.4e-10
413 K	1.5e-10
413.93 K	1.7e-10
414.15 K	1.7e-10
414.24 K	1.7e-10
414.33 K	1.7e-10
415.52 K	2e-10
417.97 K	2.9e-10
418 K	2.7e-10
419.13 K	3.2e-10
419.16 K	3.3e-10
419.24 K	3.1e-10
419.33 K	3.2e-10
420.52 K	3.8e-10
422.97 K	5.4e-10
423.01 K	5.1e-10
423.46 K	5.2e-10
424.17 K	6.4e-10
424.24 K	6.4e-10
424.31 K	6.1e-10
425.53 K	7.3e-10
427.91 K	9.2e-10
427.98 K	1e-09
428.01 K	1e-09
429.18 K	1e-09
429.24 K	1e-09
429.26 K	1.1e-09
430.53 K	1.3e-09
432.25 K	1.5e-09
433 K	1.8e-09
433.02 K	1.7e-09
434.17 K	2e-09
434.2 K	1.9e-09
434.24 K	1.9e-09
435.54 K	2.3e-09
436.8 K	2.6e-09
438.01 K	3.1e-09
438.02 K	3e-09
439.04 K	3.4e-09
439.21 K	3.6e-09
439.23 K	3.4e-09
440.54 K	4e-09
441.79 K	4.6e-09
443.01 K	5.2e-09
443.03 K	5.2e-09
443.88 K	5.8e-09
444.2 K	5.9e-09
444.26 K	6.3e-09
445.56 K	6.9e-09
446.75 K	8e-09
448.02 K	8.9e-09
448.07 K	8.7e-09
449.16 K	1e-08
449.26 K	1e-08
450.57 K	1.2e-08
451.67 K	1.4e-08
453.06 K	1.4e-08
454.09 K	1.7e-08
454.27 K	1.9e-08
456.51 K	2.2e-08
458.95 K	2.8e-08

CCCCCCCC[P+](CCCCCC)(CCCCCC)CCCCCC.F[P-](F)(F)(F)(F)F [trihexyloctylphosphonium hexafluorophosphate]
Conditions	vapor or sublimation pressure [kPa]
408.34 K	3.4e-10
410.85 K	4.4e-10
410.96 K	4.8e-10
413.36 K	6.3e-10
415.82 K	8.4e-10
415.89 K	8e-10
418.37 K	1.1e-09
420.79 K	1.5e-09
420.83 K	1.5e-09
423.37 K	2e-09
425.75 K	2.7e-09
425.79 K	2.7e-09
428.38 K	3.6e-09
430.75 K	4.6e-09
430.81 K	4.7e-09
433.38 K	6.1e-09
435.72 K	8e-09
435.73 K	7.9e-09
438.4 K	1.1e-08
440.74 K	1.4e-08
443.39 K	1.8e-08
445.76 K	2.3e-08
448.39 K	3e-08
450.79 K	3.9e-08
450.8 K	3.8e-08
453.43 K	5.1e-08
455.83 K	6.5e-08
455.85 K	6.4e-08

CCCCCC[P+](CCCCCC)(CCCCCC)CCCCCC.[Br-] [tetrahexylphosphonium bromide]
Conditions	vapor or sublimation pressure [kPa]
400.93 K	3.7e-10
403.37 K	5.3e-10
403.43 K	5e-10
408.28 K	9.5e-10
408.37 K	9.4e-10
410.79 K	1.2e-09
410.8 K	1.3e-09
410.82 K	1.3e-09
413.22 K	1.7e-09
413.3 K	1.7e-09
415.71 K	2.1e-09
415.72 K	2.2e-09
415.78 K	2.3e-09
418.18 K	2.9e-09
418.27 K	2.9e-09
420.76 K	3.9e-09
423.16 K	5.2e-09
423.23 K	5.4e-09
425.66 K	6.9e-09
425.67 K	6.8e-09
425.75 K	6.8e-09
428.16 K	8.8e-09
428.22 K	8.9e-09
430.73 K	1.2e-08
433.18 K	1.5e-08
433.24 K	1.5e-08
435.67 K	2e-08
435.68 K	2e-08
435.75 K	2e-08
438.21 K	2.5e-08
438.25 K	2.6e-08
440.7 K	3.3e-08
440.72 K	3.3e-08
440.77 K	3.4e-08
443.24 K	4.2e-08
443.29 K	4.3e-08
445.74 K	5.5e-08
445.75 K	5.5e-08
445.79 K	5.8e-08
448.3 K	7.2e-08
448.31 K	7.1e-08
450.8 K	9.1e-08
450.81 K	9e-08

CCCCCC[P+](CCCCCC)(CCCCCC)CCCCCC.F[P-](F)(F)(F)(F)F [tetrahexylphosphonium hexafluorophosphate]
Conditions	vapor or sublimation pressure [kPa]
395.83 K	2e-10
400.74 K	3.8e-10
405.65 K	7e-10
408.42 K	1e-09
410.61 K	1.3e-09
413.37 K	1.9e-09
415.59 K	2.4e-09
418.31 K	3.4e-09
423.24 K	5.9e-09
428.21 K	1e-08
430.65 K	1.4e-08
433.2 K	1.8e-08
435.66 K	2.4e-08
438.23 K	3.1e-08
440.69 K	4e-08
443.24 K	5e-08
445.73 K	6.7e-08
448.28 K	8.5e-08
451.57 K	1.23e-07
453.41 K	1.42e-07
